Columns and labels:
[1] = tested on: STZ-induced diabetic mice; experiment: In vivo hypoglycemic study, blood glucose after oral gavage in STZ-induced diabetic mice; set-up: species or system male C57BL/6JNarl mice
Protocol: Diabetes was induced in male C57BL/6JNarl mice (8 weeks age, around 20 grams body weight) by two tail vein injections of streptozotocin (STZ) (first: 75 mg/kg, second: 150 mg/kg). Induction of diabetes in mice was verified by measuring glucose concentration in a blood sample that was obtained from the tail vein. […] An composition containing 200 IU/kg of insulin was administered by oral gavage to each of eight STZ-induced diabetic mice in three groups (i.e., 24 mice total). A first group each received free non-modified insulin suspended in about 160-230 microliters (depending on animal weight) of a 3.78% (w/w) NaHCO3 antacid solution. A second group each received insulin in the form of Formulation 1 suspended in about 160-230 microliters of phosphate-buffered saline (PBS). A third group received Formulation 1 insulin in the form of Formulation 1 suspended in about 160-230 microliters of a 3.78% (w/w) NaHCO3 antacid solution (i.e., a ten-fold dilution of Formulation 1). […] Blood samples were drawn from each mouse following gavage, and blood glucose levels in those samples were determined. […] Drug remaining in the formulation was analyzed, and in vivo potency was also assessed by administering insulin formulation into streptozotocin-induced diabetic mice and measuring blood glucose with a glucometer.

[2] = tested on: Caco-2 cell monolayers
Protocol: Caco-2 cells were cultured at 37±2 degrees Celsius in minimum essential medium (MEM) with Eagles salt and 1-glutamine supplemented with 15% fetal bovine serum, with 1% of non-essential amino acid, and with 1% of antibiotic-antimycotic in a incubator under a 5% carbon dioxide atmosphere to simulate intestinal lining cells.
At time zero, medium on one face of the cell monolayer was replaced by 0.5 milliliter of a solution that included one of Formulation 1, 2, or 3 or of insulin not incorporated into a SMEDDS-containing formulation. The solution was diluted ten-fold with medium (i.e., one part insulin-containing solution and nine parts buffer) prior to application to the monolayer. Thirty minutes following this replacement, insulin content at the basolateral face of the monolayer was analyzed by HPLC. The permeability coefficient (Papp) was calculated from the following equation: Papp=(dQ/dt)/(C0×area), where dQ/dt is the linear appearance rate obtained from the profile of the transported amount of the substrate against the time (measured in micrograms per second); C0 is a measured initial concentration in the donor compartment (measured in micrograms per milliliter), and “area” is the membrane surface area of the cell monolayer.

For “free insulin: non-modified human insulin not combined with a SMEDDS-containing composition”, the “blood glucose levels at any time point” value ([1]; 200 IU/kg free insulin solution by oral gavage) was “No significant differences in the blood glucose levels”, the “blood glucose levels over study period” value ([1]; 200 IU/kg oral gavage, free insulin in 3.78% NaHCO3 antacid solution) was “did not vary significantly” and the “trans-monolayer transport of insulin” value [2] was “No trans-monolayer transport”.
